Like-named read-outs stand apart in the source and are kept apart here.
Tests used:
[1] = test system: T. gondii bradyzoites (EGS strain); assay: EGS strain bradyzoite assay (cysts in HFF, dolichos/BAG1 staining); type: cell-based, Toxoplasma gondii; settings: for IC50: EGS strain
Procedure: (§1) HFF cells were grown in IMDM (1×, [+] glutamine, [+] 25 mM HEPES, [+] Phenol red, 10% FBS, [Gibco, Denmark]) on removable, sterile glass disks in the bottom of a clear, flat-bottomed 24-well plate. Cultures were infected with 3×10^4 parasites (EGS strain) per well, in 0.5 mL media and plate was returned to incubator at 37° C. overnight. The following day, the media was removed and clear IMDM and compounds were added to making various concentrations of the drug, to a total volume of 0.5 mL. Two wells were filled with media only, as a control. Plates were returned to the 37° C. incubator for 72 hours.
Efficacy was determined following fixation. Staining was used to determine the numbers of cysts in cultures without and with treatment with the test compounds. Cells were fixed using 4% paraformaldehyde and stained with Fluorescein-labeled Dolichos Biflorus Agglutinin, DAPI, and anti-BAG1, and anti-SAG1. Disks were removed and mounted onto glass slides and visualized using microscopy (Nikon Tl7). Slides were also scanned using a CRi Pannoramic Scan Whole Slide Scanner and viewed using Panoramic Viewer Software.
as §1, with “[gibco,” for “[Gibco,”, “2” for “Two”, “72 hours, and checked once every 24” for “72”, “hours. If tachyzoites were visible in the control before 72 hours, the cells were fixed and stained.” for “hours.”
Cells were fixed using 4% paraformaldehyde and stained with Fluorescein-labeled Dolichos Biflorus Agglutinin, DAPI, and BAG1. Disks were removed and mounted onto glass slides and visualized using microscopy (Nikon Tl7). Slides were scanned using a CRi Pannoramic Scan Whole Slide Scanner and viewed using Panoramic Viewer Software. Effects of the compounds were quantified by counting cysts in the controls and treated cells. Cysts and persisting organisms were counted in a representative field of view and then multiplied by a factor determined by the total area of the disk in order to estimate the number of cysts and organisms in each condition.
HFF cells were grown in IMDM (1×, [+] glutamine, [+] 25 mM HEPES, [+] Phenol red, 10% FBS, [gibco, Denmark]) on removable, sterile glass disks in the bottom of a clear, flat-bottomed 24-well plate. Cultures were infected with 3×10^4 parasites (EGS strain) per well, in 0.5 mL media and plate was returned to incubator at 37° C. overnight. The following day, the media was removed and clear IMDM and compounds were added to making various concentrations of the drug, to a total volume of 0.5 mL. 2 wells were filled with media only, as a control. Plates were returned to the 37° C. incubator for 72 hours, and checked once every 24 hours. If tachyzoites were visible in the control before 72 hours, the cells were fixed and stained. Cells were fixed using 4% paraformaldehyde and stained with Fluorescein-labeled Dolichos Biflorus Agglutinin, DAPI, and BAG1. Disks were removed and mounted onto glass slides and visualized using microscopy (Nikon Tl7). Slides were scanned using a CRi Pannoramic Scan Whole Slide Scanner and viewed using Panoramic Viewer Software. Effects of the compounds were quantified by counting cysts in the controls and treated cells. Cysts and persisting organisms were counted in a representative field of view and then multiplied by a factor determined by the total area of the disk in order to estimate the number of cysts and organisms in each condition. Data was collected using Gen5 software. IC50 was calculated by graphical analysis in Excel.

[2] = test system: P. falciparum strains D6, TM91-C235, W2, C2B; assay: Malaria SYBR Green I-Based Fluorescence (MSF) Assay; type: cell-based, Plasmodium falciparum; settings: Plasmodium falciparum
How it was run: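 Growth inhibition of P. falciparum strains in a microtiter drug sensitivity assay, with parasite proliferation measured as malarial DNA content via SYBR Green I intercalation fluorescence. Strains: drug-sensitive D6, multi-drug resistant TM91-C235, chloroquine-resistant W2, and atovaquone-resistant C2B.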

[3] = D6 strain, read-out: Pf D6 IC50

SMILES: Cc1[nH]c2c(c(=O)c1-c1ccc(Oc3ccccc3)cc1)CCCC2 [MJM170]
- reduction of EGS bradyzoites in cysts in vitro [1]: markedly reduces EGS bradyzoites in cysts
- IC50 ([1]; Toxoplasma gondii, read-out: Brady IC50): 1 to 10 µM
- IC50 ([1]; Toxoplasma gondii, read-out: T. gondii Bradyzoite IC50): 4 µM
- IC50 ([2]; C2B strain (multi-drug resistant, atovaquone resistant), read-out: P. falciparum IC50): 0.01 µM
- IC50 ([2]; C2B strain, read-out: SYBR Green C2B IC50): 0.01 µM
- IC50 ([2]; D6 strain (drug sensitive), read-out: P. falciparum IC50): 0.01 µM
- IC50 [2, 3]: 0.01 µM
- IC50 ([2]; D6 strain, read-out: SYBR Green D6 IC50): 0.01 µM
- IC50 ([2]; TM91C235 strain (multi-drug resistant), read-out: P. falciparum IC50): 0.03 µM
- IC50 ([2]; TM91C235 strain, read-out: SYBR Green C235 IC50): 0.03 µM
- IC50 ([2]; W2 strain (chloroquine resistant), read-out: P. falciparum IC50): 0.03 µM
- IC50 ([2]; W2 strain, read-out: SYBR Green W2 IC50): 0.03 µM
- IC50 ([2]; wild type and multi-drug resistant, all strains, read-out: IC50 against P. falciparum): < 0.03 µM

SMILES: Cc1[nH]c2c(c(=O)c1-c1ccc(Oc3ccc(OC(F)(F)F)cc3)cc1)CCCC2 [JAG21, 2-methyl-3-(4-(4-(trifluoromethoxy)phenoxy)phenyl)-5,6,7,8-tetrahydroquinolin-4(1H)-one]
- reduction in the number of true cysts and small organisms ([1]; 1 μM and 10 μM, EGS): statistically significant reduction
- IC90 ([1]; Toxoplasma gondii, read-out: IC 90 against bradyzoites): 0.5 µM
- Pseudocysts ([1]; part a, 1 μM): 29 ± 6
- Small organisms ([1]; part a, 1 μM): 90.5 ± 33.5
- True Cysts ([1]; part a, 1 μM): 0.5 ± 0.6
- Pseudocysts ([1]; part a, 10 μM): 25.5 ± 5.1
- Small organisms ([1]; part a, 10 μM): 73.25 ± 30.9
- True Cysts ([1]; part a, 10 μM): 0.25 ± 0.5
- Pseudocysts ([1]; part b, 1 μM): 2955
- Small organisms ([1]; part b, 1 μM): 9734
- True Cysts ([1]; part b, 1 μM): 54
- Pseudocysts ([1]; part b, 10 μM): 2638
- Small organisms ([1]; part b, 10 μM): 7309
- True Cysts ([1]; part b, 10 μM): 22
- IC50 [2, 3]: 0.0143 µM
- IC50 ([2]; including all drug resistant strains, read-out: inhibitor of Plasmodium falciparum): 0.04 to 0.065 µM

Source: US11414385B2, “Compounds and methods for treating, detecting, and identifying compounds to treat apicomplexan parasitic diseases” (The University of Chicago, priority 2015, dated 2022)
